Laboratory results as given in PubChem BioAssay AID2060606 (Molecular Pharmacology Branch, DTP, NCI, 2025).

Test system: 922993-354-T-J3-PDC complex spheroids, viability, % test/control
Test: Anticancer human tumor 922993-354-T-J3-PDC patient-derived endometrial carcinoma cell line growth inhibition [CLK]
Settings: for IC50: curve of first compound; for viability, T/C: stronger effect = lower value
Procedure, shortened: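 Multi-cell-type spheroids combined patient-derived tumor cells with HUVEC endothelial cells and human mesenchymal stem cells. Paired agents were dosed in half-log steps down from about clinical Cmax, or from 10 microM where Cmax was unknown.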
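Further: spheroids exposed to the agents for 7 days before readout.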

## Cn1ncnc1[C@H]1c2n[nH]c(=O)c3cc(F)cc(c23)N[C@@H]1c1ccc(F)cc1 + CN1CCN(c2cc(C(=O)Nc3cc4cc(-c5cnn(C)c5)ccc4cn3)ccn2)CC1
Second compound 0.0316 µM
  IC50: > 100 nM
Second compound 0.1 µM
  IC50: > 100 nM
Second compound 0.316 µM
  IC50: < 0.316 nM
Second compound 1 µM
  IC50: < 0.316 nM
Second compound 3.16 µM
  IC50: < 0.316 nM
Second compound 10 µM
  IC50: < 0.316 nM
Second compound 0.0316 µM, first compound 0.000316 µM
  viability, T/C: 126%
Second compound 0.0316 µM, first compound 0.001 µM
  viability, T/C: 121%
Second compound 0.0316 µM, first compound 0.00316 µM
  viability, T/C: 104%
Second compound 0.0316 µM, first compound 0.01 µM
  viability, T/C: 119%
Second compound 0.0316 µM, first compound 0.0316 µM
  viability, T/C: 119%
Second compound 0.0316 µM, first compound 0.1 µM
  viability, T/C: 75.3%
Second compound 0.1 µM, first compound 0.000316 µM
  viability, T/C: 110%
Second compound 0.1 µM, first compound 0.001 µM
  viability, T/C: 101%
Second compound 0.1 µM, first compound 0.00316 µM
  viability, T/C: 102%
Second compound 0.1 µM, first compound 0.01 µM
  viability, T/C: 103%
Second compound 0.1 µM, first compound 0.0316 µM
  viability, T/C: 116%
Second compound 0.1 µM, first compound 0.1 µM
  viability, T/C: 75.3%
Second compound 0.316 µM, first compound 0.000316 µM
  viability, T/C: 43.1%
Second compound 0.316 µM, first compound 0.001 µM
  viability, T/C: 35.2%
Second compound 0.316 µM, first compound 0.00316 µM
  viability, T/C: 41.5%
Second compound 0.316 µM, first compound 0.01 µM
  viability, T/C: 32.7%
Second compound 0.316 µM, first compound 0.0316 µM
  viability, T/C: 35.6%
Second compound 0.316 µM, first compound 0.1 µM
  viability, T/C: 20.4%
Second compound 1 µM, first compound 0.000316 µM
  viability, T/C: 0.13%
Second compound 1 µM, first compound 0.001 µM
  viability, T/C: 0.83%
Second compound 1 µM, first compound 0.00316 µM
  viability, T/C: 0.12%
Second compound 1 µM, first compound 0.01 µM
  viability, T/C: 0.32%
Second compound 1 µM, first compound 0.0316 µM
  viability, T/C: 0.11%
Second compound 1 µM, first compound 0.1 µM
  viability, T/C: 0.89%
Second compound 3.16 µM, first compound 0.000316 µM
  viability, T/C: 0.12%
Second compound 3.16 µM, first compound 0.001 µM
  viability, T/C: 1.22%
Second compound 3.16 µM, first compound 0.00316 µM
  viability, T/C: 0.35%
Second compound 3.16 µM, first compound 0.01 µM
  viability, T/C: 0.07%
Second compound 3.16 µM, first compound 0.0316 µM
  viability, T/C: 0.95%
Second compound 3.16 µM, first compound 0.1 µM
  viability, T/C: 1.3%
Second compound 10 µM, first compound 0.000316 µM
  viability, T/C: 0.13%
Second compound 10 µM, first compound 0.001 µM
  viability, T/C: 0.16%
Second compound 10 µM, first compound 0.00316 µM
  viability, T/C: 0.88%
Second compound 10 µM, first compound 0.01 µM
  viability, T/C: 0.13%
Second compound 10 µM, first compound 0.0316 µM
  viability, T/C: 1.94%
Second compound 10 µM, first compound 0.1 µM
  viability, T/C: 2.55%
